According to publication PMC7369900 (International Journal of Molecular Sciences, 2020):
pIC50: −log10 of the molar value. In brackets after ≈: the same amount, converted by molar mass.

Assays:
S. aureus ATCC 29,213 = test: Resistance induction by serial passage on MHA plates; format: cell-based, Staphylococcus aureus; details: passaged with CIP 0.1875 μM or 3 0.375 μM
E. coli ATCC 25922 = test: microbe, parasite or virus in culture; format: cell-based, Escherichia coli; details: Escherichia coli, ATCC25922; E. coli ATCC 25922, MHB
Procedure: (§1) The antibacterial activity of TP10-NH2-based conjugates, as well as its constituents, was evaluated by microdilution assay in Mueller Hinton broth, MHB (Table 1). […] There are, however, some exceptions. […] Its activity against two other tested bacteria was somewhat lower though.
(§2) The antibacterial activity (bacteriostatic: MIC and bactericidal: MBC) of the tested compounds was determined in MHB (Mueller Hinton Broth, Sigma Aldrich, St. Louis, MO, USA) using a serial two-fold dilution method in 96-well microtiter plates according to CLSI recommendations, described in M07-A10 document. The exact conditions have been described previously. All experiments were performed in three replicates. The MIC90 and MIC50 values were defined as the concentrations of compounds tested that caused a 90% or 50% reduction of growth, respectively, comparing to the drug-free control.

Hep G2 = test: cells; format: cell-based, human; details: Homo sapiens, HepG2; Hep G2, 72 h, MTT
Procedure: (§3) Among the conjugates, LVXC-S-S-CTP10-NH2 (5) was the least cytotoxic. […] In the case of HEK 293 and LLC-PK1 cells, the IC50 values of 5 were nearly four times higher. […] Additionally, we noted that the cancer cells Hep G2 were less sensitive to the action of the given compounds than the non-cancer cells (HEK 293 and LLC-PK1).
(§4) Cytotoxicity was assessed against three mammalian cell lines: LLC-PK1, Hep G2, and HEK 293. Multiwell (96–well) plates were seeded at 7000 cells/well in Medium 199 supplemented with 7.5% FBS, MEM Eagle’s medium supplemented with 10% FBS, or DMEM medium supplemented with 10% FBS, respectively. All media were supplemented with L-glutamine and antibiotics (penicillin/streptomycin). Cells were allowed to attach overnight. Drugs were dissolved in cell culture medium and added to wells in 100-µL aliquots of 2× concentrated solutions, in triplicates. To control wells, 100 µL of the medium were added. Cells were incubated with the studied compounds for 72 h at 37 °C and 95%/5% or 90%/10% (HEK 293 cells) CO2 atmosphere. Then, 20-µL aliquots of MTT solution in PBS (4 mg/mL) were added to all wells and plates were incubated further for 3 h in 37 °C. Formazan crystals formed were dissolved in 100 µL of DMSO and the absorbance of the solutions was measured using a multiwell plate reader (Spark, Tecan, Männedorf, Switzerland) at λ = 540 nm. Cytotoxicity was determined compared to the drug-free control. All experiments were performed in triplicates.

HEK 293 [1] = test: cells; format: cell-based, human; details: Homo sapiens, HEK293; HEK 293, 72 h, MTT
Procedure: as §3, §4

human red blood cells = test: Hemolysis assay
S. aureus ATCC 29213 = test: microbe, parasite or virus in culture; format: cell-based, Staphylococcus aureus; details: Staphylococcus aureus, ATCC29213; S. aureus ATCC 29213, MHB
Procedure: as §1, §2

HL-60 = test: ROS generation (CM-H2DCFDA, flow cytometry); format: cell-based, human; details: human, 100 µM
Procedure: (§5) In the positive controls treated with H2O2, the fraction of ROS-positive cells exceeded 75%. […] Strikingly, in HL-60, a biologically significant effect was observed almost immediately (after 15 min of incubation). The same was noted after 1 h in the HEK 293 cell line. […] Similarly, conjugates 4 and 5 generated ROS at the low level (less than 15% for HL-60 and less than 20% for HEK 293) (manuscript in preparation). […] For HL-60, the critical level of ROS was noted after 15 min of incubation.
(§6) ROS generation activity was evaluated as described previously. Briefly, HEK 293 cells were seeded on 35-mm Petri dishes in the amount of 15,000 cells per plate for 24 h in DMEM medium. […] Positive controls contained 250 µM H2O2, while negative controls were without any additions. After 0.5, 2.5, 5.5, and 24 h of incubation at 37 °C, the CM-H2DCFDA molecular probe (Thermo Fischer Scientific, Waltham, USA) was added to the plates and incubation was continued for another 0.5 h. The HEK 293 cells were detached with 0.05% trypsin solution in PBS and HBSS (Hank’s Balanced Salt Solution) and suspended in fresh DMEM medium. All samples were additionally stained with 7-AAD (7-aminoactinomycin D, 0.8 µg/mL) and immediately analysed with a Guava easyCyte flow cytometer (Merc, Burlington, USA). The determinations were performed in triplicates.

HEK 293 [2] = test: ROS generation (CM-H2DCFDA, flow cytometry); format: cell-based, human; details: human, 500 µM
Procedure: as §5, §6

[3] = molecular target: T1, yeast DNA topoisomerase II (Saccharomyces cerevisiae, UniProt P06786); test: biochemical; format: biochemical; details: 500 µM
T1 construct: purchased Inspiralis (Norwich, UK)

[4] = test system: S. epidermidis ATCC 12228; test: microbe, parasite or virus in culture; format: cell-based, Staphylococcus epidermidis; details: Staphylococcus epidermidis, ATCC12228; S. epidermidis ATCC 12228, MHB
Procedure: as §1, §2

E. coli ATCC 25,922 = test: Resistance induction by serial passage on MHA plates; format: cell-based, Escherichia coli; details: passaged with CIP 0.012 μM or 3 0.012 μM
P. aeruginosa ATCC 27853 = test: microbe, parasite or virus in culture; format: cell-based, Pseudomonas aeruginosa; details: Pseudomonas aeruginosa, ATCC27853; P. aeruginosa ATCC 27853, MHB
Procedure: as §1, §2

LLC-PK1 = test: cells; format: cell-based, pig; details: Sus scrofa; LLC-PK1, 72 h, MTT
Procedure: as §3, §4

[5] = test system: Gram-positive and Gram-negative bacteria; format: cell-based; details: MHB, four bacteria
Procedure: as §1, §2

[6] = test system: yeasts of the Candida genus; test: microbe, parasite or virus in culture; details: read-out: MIC against Candida strains
C. krusei DSM 6128 = test: microbe, parasite or virus in culture; details: Pichia kudriavzevii, DSM6128
C. glabrata DSM 11226 = test: microbe, parasite or virus in culture; details: Nakaseomyces glabratus, DSM11226

T1 sequence (P06786 whole entry): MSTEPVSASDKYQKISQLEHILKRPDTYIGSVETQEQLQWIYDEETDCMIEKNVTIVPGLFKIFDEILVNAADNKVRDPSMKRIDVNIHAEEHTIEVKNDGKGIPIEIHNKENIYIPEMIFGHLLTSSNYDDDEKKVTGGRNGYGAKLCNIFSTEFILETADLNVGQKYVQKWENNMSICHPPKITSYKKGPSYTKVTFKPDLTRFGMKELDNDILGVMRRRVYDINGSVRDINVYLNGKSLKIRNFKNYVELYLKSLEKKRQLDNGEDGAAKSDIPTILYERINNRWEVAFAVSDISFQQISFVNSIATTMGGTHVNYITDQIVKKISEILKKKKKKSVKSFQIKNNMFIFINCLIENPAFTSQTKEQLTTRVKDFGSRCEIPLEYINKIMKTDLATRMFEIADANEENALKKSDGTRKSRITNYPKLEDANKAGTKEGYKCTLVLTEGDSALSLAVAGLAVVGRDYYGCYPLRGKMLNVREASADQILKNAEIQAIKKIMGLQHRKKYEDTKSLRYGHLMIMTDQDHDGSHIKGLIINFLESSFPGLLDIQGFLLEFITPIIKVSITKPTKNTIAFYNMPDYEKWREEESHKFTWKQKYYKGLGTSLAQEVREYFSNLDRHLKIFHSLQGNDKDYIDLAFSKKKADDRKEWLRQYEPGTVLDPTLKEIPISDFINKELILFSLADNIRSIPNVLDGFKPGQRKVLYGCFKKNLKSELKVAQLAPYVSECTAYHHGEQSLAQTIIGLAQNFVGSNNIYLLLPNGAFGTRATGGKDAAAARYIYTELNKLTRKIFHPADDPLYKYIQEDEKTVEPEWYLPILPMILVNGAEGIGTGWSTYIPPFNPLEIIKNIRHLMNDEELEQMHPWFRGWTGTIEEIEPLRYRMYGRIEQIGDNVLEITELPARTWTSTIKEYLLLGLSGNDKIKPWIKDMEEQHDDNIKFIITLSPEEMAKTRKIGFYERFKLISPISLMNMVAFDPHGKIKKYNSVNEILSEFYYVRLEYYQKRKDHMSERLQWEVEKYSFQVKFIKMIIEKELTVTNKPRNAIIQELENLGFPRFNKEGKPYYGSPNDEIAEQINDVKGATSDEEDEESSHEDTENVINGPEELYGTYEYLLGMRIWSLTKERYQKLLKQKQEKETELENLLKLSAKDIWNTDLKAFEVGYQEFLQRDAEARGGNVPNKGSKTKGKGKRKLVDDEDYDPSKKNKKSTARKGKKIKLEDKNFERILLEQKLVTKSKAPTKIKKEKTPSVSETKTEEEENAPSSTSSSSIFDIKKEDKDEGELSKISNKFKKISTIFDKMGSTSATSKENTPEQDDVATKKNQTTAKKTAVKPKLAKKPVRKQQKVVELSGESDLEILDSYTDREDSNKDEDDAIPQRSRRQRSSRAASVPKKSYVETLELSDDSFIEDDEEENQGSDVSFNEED

| Compound | MIC50 (E. coli ATCC 25922) [µM] | MIC90 (E. coli ATCC 25922) [µM] | pIC50 (Hep G2) | pIC50 (HEK 293 [1]) | Hemolytic effect (human red blood cells) | MIC50 (S. aureus ATCC 29213) [µM] | MIC90 (S. aureus ATCC 29213) [µM] | Topoisomerase II inhibition at the highest used concentration [3] | MIC50 [4] [µM] | MIC90 [4] [µM] | MIC50 (P. aeruginosa ATCC 27853) [µM] | MIC90 (P. aeruginosa ATCC 27853) [µM] | pIC50 (LLC-PK1) | MIC50 range over tested bacteria [5] [µM] | MIC90, upper end of range over tested bacteria [5] [µM] | also measured |
| --- | --- | --- | --- | --- | --- | --- | --- | --- | --- | --- | --- | --- | --- | --- | --- | --- |
| O=C(O)c1cn(C2CC2)c2cc(N3CCNCC3)c(F)cc2c1=O [CIP, ciprofloxacin] | < 0.0125 | 0.0125 (≈ 0.00414 µg/mL) | < 3.70 | < 3.70 | do not cause a hemolytic effect | 0.2 (≈ 0.0663 µg/mL) | 0.2 (≈ 0.0663 µg/mL) | residual activity | 0.8 (≈ 0.265 µg/mL) | 1.6 (≈ 0.53 µg/mL) | 0.4 (≈ 0.133 µg/mL) | 0.4 (≈ 0.133 µg/mL) | < 3.70 | 0.0125 to 0.8 | ≤ 1.6 | Increase of MIC compared to the control after passaging (S. aureus ATCC 29,213): 2 fold; Incubation time at which significant/critical ROS level was noted (HL-60): 15 min; Dot plot quadrant LB (HL-60; 3 h): 96.2 ± 2.6; Dot plot quadrant LT (HL-60; 3 h): 1.1 ± 1.5; Dot plot quadrant RB (HL-60; 3 h): 2.6 ± 1.6; Dot plot quadrant RT (HL-60; 3 h): 0.7 ± 0.7; Dot plot quadrant LB (HL-60; 6 h): 97.5 ± 1.2; Dot plot quadrant LT (HL-60; 6 h): 0.4 ± 0.3; Dot plot quadrant RB (HL-60; 6 h): 2.1 ± 1.3; Dot plot quadrant RT (HL-60; 6 h): 0.0 ± 0.0; Dot plot quadrant LB (HL-60; 24 h): 99.7 ± 0.2; Dot plot quadrant LT (HL-60; 24 h): 0.1 ± 0.1; Dot plot quadrant RB (HL-60; 24 h): 0.2 ± 0.1; Dot plot quadrant RT (HL-60; 24 h): 0.0 ± 0.0; Incubation time at which significant ROS effect was noted (HEK 293 [2]): 1 h; Increase of MIC after the 5th passage (E. coli ATCC 25,922): 8 fold; Increase of MIC after the 10th passage (E. coli ATCC 25,922): 8 fold |
| C[C@H]1COc2c(N3CCN(C)CC3)c(F)cc3c(=O)c(C(=O)O)cn1c23 [LVX, levofloxacin, reference compound] | 0.025 (≈ 0.00903 µg/mL) | 0.025 (≈ 0.00903 µg/mL) | < 3.70 | < 3.70 | do not cause a hemolytic effect | 0.4 (≈ 0.145 µg/mL) | 0.4 (≈ 0.145 µg/mL) | residual activity | 0.8 (≈ 0.289 µg/mL) | 1.6 (≈ 0.578 µg/mL) | 0.8 (≈ 0.289 µg/mL) | 0.8 (≈ 0.289 µg/mL) | < 3.70 | 0.0125 to 0.8 | ≤ 1.6 | MIC [6]: > 200 µM; MIC50 (C. krusei DSM 6128): > 200 µM; MIC50 (C. glabrata DSM 11226): > 200 µM |
